From ChEMBL document CHEMBL1147337, “A new bastadin from the sponge Psammaplysilla purpurea” (J Nat Prod, 1993)
Values after ≈ are worked out from the molar mass of the structure shown.

What was measured:
Dihydrofolate reductase = molecular target: T1, Dihydrofolate reductase (Homo sapiens, UniProt P00374); test: Inhibition of DHFR
T1 sequence (P00374 whole entry): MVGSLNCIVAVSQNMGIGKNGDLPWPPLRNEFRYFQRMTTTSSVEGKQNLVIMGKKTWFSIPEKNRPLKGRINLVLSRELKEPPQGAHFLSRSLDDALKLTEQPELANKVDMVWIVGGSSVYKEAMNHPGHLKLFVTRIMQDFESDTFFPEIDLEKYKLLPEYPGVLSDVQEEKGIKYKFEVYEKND

A549 = test: Cytotoxicity against human A549 cells; type: functional, cell-based
P388 = test: Cytotoxicity against mouse P388 cells; type: functional, cell-based
[1] = molecular target: DNA topoisomerase 2-alpha (Homo sapiens, UniProt P11388); test: Inhibition of topoisomerase 2
DNA topoisomerase 2-alpha, sequence (P11388 whole entry): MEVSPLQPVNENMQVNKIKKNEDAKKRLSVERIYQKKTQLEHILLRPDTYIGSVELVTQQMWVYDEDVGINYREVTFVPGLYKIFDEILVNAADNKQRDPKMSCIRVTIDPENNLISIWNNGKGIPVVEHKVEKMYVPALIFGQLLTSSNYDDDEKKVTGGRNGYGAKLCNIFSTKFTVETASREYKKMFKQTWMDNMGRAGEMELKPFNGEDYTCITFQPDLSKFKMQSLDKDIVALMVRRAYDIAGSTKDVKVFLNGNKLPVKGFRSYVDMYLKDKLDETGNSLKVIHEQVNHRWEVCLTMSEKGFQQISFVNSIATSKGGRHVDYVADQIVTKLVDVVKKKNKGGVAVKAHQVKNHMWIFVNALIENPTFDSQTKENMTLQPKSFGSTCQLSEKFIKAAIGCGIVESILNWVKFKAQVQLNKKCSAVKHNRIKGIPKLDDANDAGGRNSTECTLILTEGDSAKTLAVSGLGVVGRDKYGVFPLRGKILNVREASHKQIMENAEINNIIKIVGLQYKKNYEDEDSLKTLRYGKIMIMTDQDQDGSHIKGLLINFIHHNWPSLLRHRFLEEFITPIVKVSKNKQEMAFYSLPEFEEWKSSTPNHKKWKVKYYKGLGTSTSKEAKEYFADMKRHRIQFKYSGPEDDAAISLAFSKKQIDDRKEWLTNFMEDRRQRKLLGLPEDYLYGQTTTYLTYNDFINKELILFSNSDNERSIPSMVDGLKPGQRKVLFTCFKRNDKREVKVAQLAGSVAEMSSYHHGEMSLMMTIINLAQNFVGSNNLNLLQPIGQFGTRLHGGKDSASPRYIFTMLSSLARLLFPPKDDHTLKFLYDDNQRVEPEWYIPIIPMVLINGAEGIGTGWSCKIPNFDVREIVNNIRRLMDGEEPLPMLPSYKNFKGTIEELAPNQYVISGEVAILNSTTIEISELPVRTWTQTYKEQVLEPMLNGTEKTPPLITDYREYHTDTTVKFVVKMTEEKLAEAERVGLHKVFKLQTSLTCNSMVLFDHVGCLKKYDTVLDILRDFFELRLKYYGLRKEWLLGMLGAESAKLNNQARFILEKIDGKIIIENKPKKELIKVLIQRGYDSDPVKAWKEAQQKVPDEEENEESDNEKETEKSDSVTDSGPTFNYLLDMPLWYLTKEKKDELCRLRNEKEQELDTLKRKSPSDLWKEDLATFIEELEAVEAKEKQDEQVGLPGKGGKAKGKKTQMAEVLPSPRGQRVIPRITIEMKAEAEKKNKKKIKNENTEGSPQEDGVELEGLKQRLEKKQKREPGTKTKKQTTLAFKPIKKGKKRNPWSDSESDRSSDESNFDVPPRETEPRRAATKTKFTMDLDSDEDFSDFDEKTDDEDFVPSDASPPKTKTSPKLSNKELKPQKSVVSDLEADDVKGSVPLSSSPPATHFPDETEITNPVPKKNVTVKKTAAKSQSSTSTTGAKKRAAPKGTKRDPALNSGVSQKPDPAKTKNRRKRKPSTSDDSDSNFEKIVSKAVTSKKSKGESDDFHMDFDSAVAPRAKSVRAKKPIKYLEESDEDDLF

HT-29 = test: Cytotoxicity against human HT-29 cells; type: functional, cell-based
[2] = Cytotoxicity against african green monkey CV1 cells; type: cell-based; conditions: Chlorocebus aethiops, CV-1

IC50 (Dihydrofolate reductase): 2.46 µM
IC50 [1]: 1.97 µM
Structure (SMILES): O=C1N/C=C/c2cc(Br)c(c(Br)c2)Oc2cc(cc(Br)c2O)CCNC(=O)/C(=N/O)Cc2ccc(c(Br)c2)Oc2cc(cc(Br)c2O)C/C1=N\O [BASTADIN 14]
IC50 (A549): 2 µg/mL (≈ 1.97 µM)
IC50 (P388): 2 µg/mL (≈ 1.97 µM)
IC50 (HT-29): 2 µg/mL (≈ 1.97 µM)
IC50 [2]: 2.5 µg/mL (≈ 2.46 µM)
